Test results reported in patent US20220112165A1, “PEGYLATED PRODRUGS OF PHENOLIC TRPV1 AGONISTS” (priority 2018, published 2022).
Like-named read-outs stand apart in the source and are kept apart here.

Test: In vitro (pH stability) assay: intramolecular cyclization-release of capsaicin from the prodrug in buffer
Format: physicochemical
Settings: for stability at pH 4.5 at room temperature in comparison to the non-acylated prodrug (compound 6): pH 4.5, RT
Experimental: The compounds described herein are examples of pH activated prodrugs whereby upon exposure to a specific pH, the half-life of the intramolecular cyclization-release reaction is determined. The intramolecular cyclization-release reaction results in the concomitant formation of a cyclic urea with the release of the parent drug.
Compounds were incubated in the buffer/biological media indicated. The reactions were conducted at either room temperature or 37° C. In some embodiments, additional common ingredients/formulations which may be used in buffers for the testing of the cyclization-release of the compounds described herein include but are not limited to: N-(2-Acetamido)-2-aminoethanesulfonic acid, N-(2-Acetamido)iminodiacetic acid, 2-Amino-2-methyl-1,3-propanediol, salts of bicarbonate, N,N-Bis(2-hydroxyethyl)glycine, 2-Bis(2-hydroxyethyl)amino-2-(hydroxymethyl)-1,3-propanediol, 3-(Cyclohexylamino)-1-propanesulfonic acid, 2-(Cyclohexylamino)ethanesulfonic acid, salts of carbonate, salts of citrate, 4-(2-Hydroxyethyl)-1-piperazinepropanesulfonic acid, salts of glycine, salts of Glycyl-glycine, 4-(2-Hydroxyethyl)piperazine-1-ethanesulfonic acid, 4-Morpholineethanesulfonic acid, 4-Morpholinepropanesulfonic acid, 1,4-Piperazinediethanesulfonic acid, salts of phosphate, salts of tartrate, 2-[(2-Hydroxy-1,1-bis(hydroxymethyl)ethyl)amino]ethanesulfonic acid, Tris(2-hydroxyethyl)amine, and salts of EDTA.
Samples were collected at specific time points, quenched with a 1.0% TFA in acetonitrile solution to stop the cyclization-release reaction and analyzed by HPLC for formation of released capsaicin, cyclic urea by-product, and consumption of starting compound in plasma and cerebrospinal fluid (CSF).

[1] = buffer (simulated physiological conditions), simulated physiological conditions, pH 7.4 & 37° C., read-out: half-life of conversion to capsaicin
[2] = pH = 4.5 (0.1M aqueous sodium acetate buffer), RT, read-out: Intramolecular Cyclization-Release Half-life (T1/2) at pH 4.5 & RT (converted)
[3] = pH = 7.4 (0.2M aqueous tris buffer), 37° C., read-out: Intramolecular Cyclization-Release Half-life (T1/2) at pH 7.4 & 37° C.

SMILES | half-life [1] [min] | stability at pH 4.5 at room temperature in comparison to the non-acylated prodrug (compound 6) | half-life [2] [min] | half-life [3] [min]
CNCC1CN(C(=O)CCOCCOCCOCCOC)CCN1C(=O)Oc1ccc(CNC(=O)CCCC/C=C/C(C)C)cc1OC (stereo not drawn) [Compound 1, (E)-2-methoxy-4-((8-methylnon-6-enamido)methyl)phenyl 2-((methylamino)methyl)-4-(2,5,8,11-tetraoxatetradecan-14-oyl)piperazine-1-carboxylate] | < 5 | significant and unexpected increase in stability | 2600 | ~0.8
CNCC1CN(C(=O)CCOCCOCCOCCOCCOCCOCCOC)CCN1C(=O)Oc1ccc(CNC(=O)CCCC/C=C/C(C)C)cc1OC (stereo not drawn) [Compound 2, (E)-2-methoxy-4-((8-methylnon-6-enamido)methyl)phenyl 2-((methylamino)methyl)-4-(2,5,8,11,14,17,20-heptaoxatricosan-23-oyl)piperazine-1-carboxylate] | < 5 | significant and unexpected increase in stability | 2450 | ~0.7
CNCC1CN(C(=O)CCOCCOCCOCCOCCOCCOCCOCCOCCOCCOC)CCN1C(=O)Oc1ccc(CNC(=O)CCCC/C=C/C(C)C)cc1OC (stereo not drawn) [Compound 3, (E)-2-methoxy-4-((8-methylnon-6-enamido)methyl)phenyl 4-(2,5,8,11,14,17,20,23,26,29-decaoxadotriacontan-32-oyl)-2-((methylamino)methyl)piperazine-1-carboxylate] | < 5 | significant and unexpected increase in stability | 3060 | ~0.8
CNCC1CN(C(=O)CCOCCOCCOCCOCCOCCOCCOCCOCCOCCOCCOCCOCCOC)CCN1C(=O)Oc1ccc(CNC(=O)CCCC/C=C/C(C)C)cc1OC (stereo not drawn) [Compound 4, (E)-2-methoxy-4-((8-methylnon-6-enamido)methyl)phenyl 4-(2,5,8,11,14,17,20,23,26,29,32,35,38-tridecaoxahentetracontan-41-oyl)-2-((methylamino)methyl)piperazine-1-carboxylate] | < 5 |  |  | ~0.6
CNCC1CNCCN1C(=O)Oc1ccc(CNC(=O)CCCC/C=C/C(C)C)cc1OC (stereo not drawn) [Compound 5] | < 5 |  |  | ~0.4
CNCC1CN(C)CCN1C(=O)Oc1ccc(CNC(=O)CCCC/C=C/C(C)C)cc1OC (stereo not drawn) [Compound 6, (E)-2-methoxy-4-((8-methylnon-6-enamido)methyl)phenyl 4-methyl-2-((methylamino)methyl)piperazine-1-carboxylate] | < 5 |  | 78 | ~0.8
CNCC1CN(C(C)=O)CCN1C(=O)Oc1ccc(CNC(=O)CCCC/C=C/C(C)C)cc1OC (stereo not drawn) [Compound 7, (E)-2-methoxy-4-((8-methylnon-6-enamido)methyl)phenyl 4-acetyl-2-((methylamino)methyl)piperazine-1-carboxylate] | < 5 | significant and unexpected increase in stability | 6930 | ~0.9
CCOC(=O)N1CCN(C(=O)Oc2ccc(CNC(=O)CCCC/C=C/C(C)C)cc2OC)C(CNC)C1 (stereo not drawn) [Compound 8, (E)-4-ethyll-(2-methoxy-4-((8-methylnon-6-enamido)methyl)phenyl) 2-((methylamino)methyl)piperazine-1,4-dicarboxylate] | < 5 | significant and unexpected increase in stability | 2770 | ~1.3
